Structures are written as SMILES.

The target in the first assay is human-KAT6A (MYST domain 507-778 aa) (Homo sapiens (Human), UniProt Q92794). Put plainly: KAT6A biochemical assay (TR-FRET). Conditions: @ 1 μM; reported where IC50 could not be determined; read-out: Percent inhibition at specific concentration (KAT6A). An excerpt: TR-FRET based methods were used for assaying compounds of the present invention for KAT6A enzyme inhibitory activity. TR-FRET is a homogeneous proximity assay where Europium-labelled anti-acetyl lysine antibody binds to the acetylated substrate labelled with biotin, which in turn binds to streptavidin-labelled APC fluorescence acceptor. Europium can transfer energy to APC in the complex and the interaction of two dye-labelled binding partners is detected by the energy transfer between a donor and an acceptor dye and the subsequent light emission by the acceptor dye. KAT6A transfer an acetyl group from acetyl CoA to lysine amino acids of histones/target proteins. […] The selected compound of the present invention and enzyme are incubated for 30 min on plate shaker at 300 rpm at 25° C. Next, 5 μL of substrate mix containing histone H4 peptide and acetyl-CoA in assay buffer is added to the plate. The final concentrations of H4 peptide and acetyl-CoA are 200 nM and 600 nM, respectively. Following 60 min reaction at 25° C. on plate shaker at 300 rpm, 5 μL of detection mix containing Europium-labelled anti-acetyl antibody and streptavidin-APC is added to the reaction wells. The plate is further incubated at 25° C. on shaker at 300 rpm and is read in TR-FRET mode (Ex:340 nm; Em: 615 nm and 665 nm) on a plate reader to achieve ˜5-7-fold activity. The percent inhibition was calculated from the ratio of the fluorescence (FL) intensities [(F665/F615)×10000) using the formula […]. IC50 values of the compounds were determined by fitting the dose-response data to sigmoidal curve fitting equation using Graph pad prism software V9.
Chain of human-KAT6A (MYST domain 507-778 aa) (Q92794 507-778): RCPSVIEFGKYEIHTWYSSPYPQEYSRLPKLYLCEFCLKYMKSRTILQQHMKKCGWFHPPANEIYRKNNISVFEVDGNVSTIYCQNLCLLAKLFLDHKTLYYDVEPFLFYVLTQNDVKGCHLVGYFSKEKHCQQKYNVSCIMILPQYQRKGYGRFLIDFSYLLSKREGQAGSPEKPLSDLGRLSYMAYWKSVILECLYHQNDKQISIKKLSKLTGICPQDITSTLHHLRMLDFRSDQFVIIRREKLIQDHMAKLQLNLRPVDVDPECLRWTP
For orientation: TR-FRET usually uses a lanthanide donor and a delayed reading to cut background.
Take `CN=S(=O)(NC(=O)c1ccc(Cn2cccn2)c(OC)c1)c1c(OC)cccc1OC` (stereo not drawn) [Compound 292, 4-((1H-pyrazol-1-yl)methyl)-N-((2,6-dimethoxyphenyl)(methylamino)(oxo)-16-sulfaneylidene)-3-methoxybenzamide]: the inhibition at 1 µM came to 47%.

Turning to `COc1cccc(OC)c1S(=O)(=O)NC(=O)c1ccc(Cn2cccn2)c(OC(F)F)n1` [Compound 215, 5-((1H-pyrazol-1-yl)methyl)-6-(difluoromethoxy)-N-((2,6-dimethoxyphenyl)sulfonyl)picolinamide], the inhibition at 1 µM is 16%.

Staying with this assay, now noted: TR-FRET; histone H4 peptide 200 nM, acetyl-CoA 600 nM; read-out: KAT6A IC50.
The term IC50 denotes the concentration needed to halve the response being measured. On to `COc1cccc(OC)c1S(=O)(=O)NC(=O)c1ccc(Cn2cccn2)c(C2CC2)c1F` [Compound 40, 4-((1H-pyrazol-1-yl)methyl)-3-cyclopropyl-N-((2,6-dimethoxyphenyl)sulfonyl)-2-fluorobenzamide], for which the half-maximal inhibitory concentration (IC50) amounted to 15 nM.

For the compound `COc1cc(C)c(S(=O)(=O)NC(=O)c2ccc(Cn3cccn3)c(OC)n2)c(OC)c1` [Compound 286, 5-((1H-pyrazol-1-yl)methyl)-N-((2,4-dimethoxy-6-methylphenyl)sulfonyl)-6-methoxypicolinamide], the IC50 stood at 11 nM.

On to `COc1cccc(OC)c1S(=N)(=O)NC(=O)c1ccc(Cn2cccn2)c(OC)n1` (single isomer, unassigned) [Compound 243a], for which the IC50 was 17 nM.

Take `COc1cccc(OC2CC2)c1S(=O)(=O)NC(=O)c1ccc(Cn2cccn2)c(OC)n1` [Compound 279, 5-((1H-pyrazol-1-yl)methyl)-N-((2-cyclopropoxy-6-methoxyphenyl)sulfonyl)-6-methoxypicolinamide]: the IC50 was 14 nM.

For `CCOc1cccc(OC)c1S(=O)(=O)NC(=O)c1ccc(Cn2cccn2)c(OC)n1` [Compound 218, 5-((1H-pyrazol-1-yl)methyl)-N-((2-ethoxy-6-methoxyphenyl)sulfonyl)-6-methoxypicolinamide], the IC50 is 8 nM.

As for `COc1cccc(OC)c1S(=O)(=O)NC(=O)c1ccc(Cn2cccn2)c(C(F)(F)F)n1` [Compound 236, 5-((1H-pyrazol-1-yl)methyl)-N-((2,6-dimethoxyphenyl)sulfonyl)-6-(trifluoromethyl)picolinamide], the IC50 is 4 nM.

Regarding `COc1ccc(C(C)(C)C)cc1S(=O)(=O)NC(=O)c1ccc(Cn2cccn2)c(C#N)c1` [Compound 18], the IC50 is 70 nM.

Turning to `COc1cccc(OC)c1S(=O)(=O)NC(=O)c1ccc(Cn2cccn2)c(C2CC2)c1` [Compound 28, 4-((1H-pyrazol-1-yl)methyl)-3-cyclopropyl-N-((2,6-dimethoxyphenyl)sulfonyl)benzamide], the IC50 was 19 nM.

As to `COc1ccc(S(=O)(=O)NC(=O)c2ccc(Cn3cccn3)c(OC)c2)cc1Cl` [Compound 311, 4-((1H-pyrazol-1-yl)methyl)-N-((3-chloro-4-methoxyphenyl)sulfonyl)-3-methoxybenzamide], the concentration for half-maximal inhibition (IC50) is 135 nM.

For `COc1cc(OC)c(S(=O)(=O)NC(=O)c2ccc(Cn3cccn3)c(OC)n2)cc1F` [Compound 244, 5-((1H-pyrazol-1-yl)methyl)-N-((5-fluoro-2,4-dimethoxyphenyl)sulfonyl)-6-methoxypicolinamide], the IC50 came out at 14 nM.

Take `COc1nc(C(=O)NS(=O)(=O)c2cc(C(F)(F)F)cc3c2OCC3)ccc1Cn1cccn1` [Compound 287, 5-((1H-pyrazol-1-yl)methyl)-6-methoxy-N-((5-(trifluoromethyl)-2,3-dihydrobenzofuran-7-yl)sulfonyl)picolinamide]: the IC50 was 11 nM.

As for `COc1ccc(C(C)(O)C2CC2)cc1S(=O)(=O)NC(=O)c1ccc(Cn2cccn2)c(OC)n1` (stereo not drawn) [Compound 240, 5-((1H-pyrazol-1-yl)methyl)-N-((5-(1-cyclopropyl-1-hydroxyethyl)-2-methoxyphenyl)sulfonyl)-6-methoxypicolinamide], the half-inhibitory concentration (IC50) stood at 11 nM.

For `COc1ccc(C(C)(C)C)cc1S(=O)(=O)NC(=O)c1ccc(Cn2cccn2)c(C2CC2)c1` [Compound 17, 4-((1H-pyrazol-1-yl)methyl)-N-((5-(tert-butyl)-2-methoxyphenyl)sulfonyl)-3-cyclopropylbenzamide], the 50% inhibitory concentration (IC50) was 20 nM.

As for `CCOc1cccc(OC)c1S(=N)(=O)NC(=O)c1ccc(Cn2cccn2)c(OC)n1` (racemic) [Compound 294, 5-((1H-pyrazol-1-yl)methyl)-N-(2-ethoxy-6-methoxyphenylsulfonimidoyl)-6-methoxypicolinamide], the IC50 was 35 nM.

Consider `COc1cc(C(=O)NS(=O)(=O)c2c(OC)cccc2OC)c(OC)cc1Cn1cccn1` [Compound 48, 4-((1H-pyrazol-1-yl)methyl)-N-((2,6-dimethoxyphenyl)sulfonyl)-2,5-dimethoxybenzamide], for which the IC50 was 51 nM.

Turning to `COc1cc(OC)c(S(=N)(=O)NC(=O)c2ccc(Cn3cccn3)c(OC)n2)c(OC)c1` (stereo not drawn) [Compound 263, 5-((1H-pyrazol-1-yl)methyl)-6-methoxy-N-(2,4,6-trimethoxyphenylsulfonimidoyl)picolinamide], the IC50 was found to be 36 nM.

For `COc1cccc(OC)c1S(=O)(=O)NC(=O)c1ccc(Cn2cccn2)c(C2CC2)n1` [Compound 229, 5-((1H-pyrazol-1-yl)methyl)-6-cyclopropyl-N-((2,6-dimethoxyphenyl)sulfonyl)picolinamide], the IC50 turned out to be 13 nM.

Take `COc1cc(C(=O)NS(=O)(=O)c2c(OC)cccc2-n2cccn2)ccc1Cn1cccn1` [Compound 36, 4-((1H-pyrazol-1-yl)methyl)-3-methoxy-N-((2-methoxy-6-(1H-pyrazol-1-yl)phenyl)sulfonyl)benzamide]: the IC50 turned out to be 198 nM.

On to `COc1cc(Cn2cccn2)ccc1C(=O)NS(=O)(=O)c1ccccc1OC` [Compound 2, 4-((1H-pyrazol-1-yl)methyl)-2-methoxy-N-((2-methoxyphenyl)sulfonyl)benzamide], for which the IC50 came out at 741 nM.

With `COc1cccc(OC)c1S(=O)(=O)NC(=O)c1ccc(Cn2cccn2)c(C(F)(F)F)c1` [Compound 35], the IC50 came out at 30 nM.

In the case of `COc1cc(Cn2cccn2)ccc1C(=O)NS(=O)(=O)c1cc(C(C)(C)C)ccc1OC` [Compound 4], the IC50 stood at 82 nM.

As to `CCOc1nc(C(=O)NS(=O)(=O)c2c(OC)cccc2OC)ccc1Cn1cccn1` [Compound 289, 5-((1H-pyrazol-1-yl)methyl)-N-((2,6-dimethoxyphenyl)sulfonyl)-6-ethoxypicolinamide], the concentration for half-maximal inhibition (IC50) came out at 19 nM.

In the case of `COc1cccc(OC)c1S(=O)(=O)NC(=O)c1ccc(Cn2cccn2)c(OC(F)(F)F)n1` [Compound 228, 5-((1H-pyrazol-1-yl)methyl)-N-((2,6-dimethoxyphenyl)sulfonyl)-6-(trifluoromethoxy)picolinamide], the 50% inhibitory concentration (IC50) amounted to 21 nM.

As to `COc1cc(C)cc(OC)c1S(=O)(=O)NC(=O)c1ccc(Cn2cccn2)c(OC)n1` [Compound 275, 5-((1H-pyrazol-1-yl)methyl)-N-((2,6-dimethoxy-4-methylphenyl)sulfonyl)-6-methoxypicolinamide], the concentration for half-maximal inhibition (IC50) came out at 10 nM.

For `COc1cc(C(=O)N[S@@](=N)(=O)c2cc(C(C)(C)CO)ccc2OC)ccc1Cn1cccn1` [Compound 291a, (R)-4-((1H-pyrazol-1-yl)methyl)-N-(5-(1-hydroxy-2-methylpropan-2-yl)-2-methoxyphenylsulfonimidoyl)-3-methoxybenzamide], the IC50 amounted to 93 nM.

As to `COc1nc(C(=O)N[S@](=N)(=O)c2c(F)cccc2F)ccc1Cn1cccn1` [Compound 308b, (S)-5-((1H-pyrazol-1-yl)methyl)-N-(2,6-difluorophenylsulfonimidoyl)-6-methoxypicolinamide], the IC50 is 49 nM.

Regarding `COc1ccc(C(C)(C)O)cc1S(=O)(=O)NC(=O)c1ccc(Cn2cccn2)c(OC)n1` [Compound 230, 5-((1H-pyrazol-1-yl)methyl)-N-((5-(2-hydroxypropan-2-yl)-2-methoxyphenyl)sulfonyl)-6-methoxypicolinamide], the IC50 came out at 11 nM.

As for `COc1cccc(OC)c1S(=O)(=O)NC(=O)c1ccc(Cn2cccn2)c(OC)c1F` [Compound 69, 4-((1H-pyrazol-1-yl)methyl)-N-((2,6-dimethoxyphenyl)sulfonyl)-2-fluoro-3-methoxybenzamide], the 50% inhibitory concentration (IC50) is 114 nM.

In the case of `COc1cc(C(=O)N[S@](=N)(=O)c2c(OC)ccc(C)c2OC)ccc1Cn1cccn1` [Compound 304b, (S)-4-((1H-pyrazol-1-yl)methyl)-N-(2,6-dimethoxy-3-methylphenylsulfonimidoyl)-3-methoxybenzamide], the IC50 was 130 nM.

On to `COc1cc(OC)c(S(=O)(=O)NC(=O)c2ccc(Cn3cccn3)c(OC)c2)cc1F` [Compound 43, 4-((1H-pyrazol-1-yl)methyl)-N-((5-fluoro-2,4-dimethoxyphenyl)sulfonyl)-3-methoxybenzamide], for which the IC50 was found to be 18 nM.

On to `COc1ccc(C2CC2)cc1S(=O)(=O)NC(=O)c1ncc(Cn2cccn2)c(OC)n1` [Compound 273, 5-((1H-pyrazol-1-yl)methyl)-N-((5-cyclopropyl-2-methoxyphenyl)sulfonyl)-4-methoxypyrimidine-2-carboxamide], for which the IC50 came to 34 nM.

The record behind these values is patent US20250136553A1, “ACYLSULFONAMIDE KAT6A INHIBITORS” (Olema Pharmaceuticals, Inc., priority 2023, published 2025).
